Converted amounts (≈) assume the structure as drawn. Like-named read-outs stand apart in the source and are kept apart here.
What was measured:
Tobacco Budworm = assay: Tobacco budworm LC50 and FD50 (instar not stated); format: in vivo, Heliothis virescens (Fabricus)
From the text: (§1) Test formulations and procedures used for evaluation are as follows:
FD50 = The concentration of insecticide required to reduce insect

Southern Armyworm = assay: Southern armyworm test, third-instar larvae on treated Sieva lima bean leaves; format: in vivo, Spodoptera eridania (Cramer)
In short: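 Sieva lima bean plants, primary leaves expanded to 1.91 cm, were dipped with agitation for three seconds in test material dissolved in 65% acetone, with further dilutions in acetone, then air-dried in a hood. A treated leaf was placed in a 9 cm petri dish on moist filter paper with 10 third-instar Spodoptera eridania larvae about 1 cm long. Dishes were covered and kept at 80° F. and 50% r.h. Mortality and feeding were assessed after two days.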

[1] = test system: Tobacco Budworm 3rd Instar; assay: Tobacco budworm secondary test, third-instar larvae on treated cotton cotyledons; format: in vivo, Heliothis virescens (Fabricus)
[2] = test system: Tobacco Budworm 1st Instar; assay: Tobacco budworm initial test, treated eggs / newly hatched (1st instar) larvae on treated cotton leaves; format: in vivo, Heliothis virescens (Fabricus)
Description: as §1
A. 100 mg of the test material is weighed, placed in a funnel over a 113 g narrow-mouth bottle, rinsed into the bottle with a 35 mL scoop of acetone, followed by a 35 mL scoop of water and another 35 mL scoop of acetone to yield 1000 ppm in 65% acetone. If the material is not soluble, it is broken up with a glass rod and used as a suspension.
B. This stock solution ("A") is used to make 300 ppm solutions or suspensions by pipetting 30 mL of "A" into a bottle containing 70 mL of 50% acetone to yield 300 ppm. Further dilutions in 50% acetone are made as required.
C. Tests requiring 10 ppm acetone solutions: 1 mL of "A" is pipetted into 99 mL of acetone to yield 10 ppm. Additional dilutions are made using 50% acetone as required.
Tobacco Budworm--Heliothis virescens (Fabricus)
A cotton plant with two true leaves expanded is dipped for three seconds with agitation in 300 ppm solution. A 1.27 to 1.91 cm square of cheesecloth with about 50 to 100 budworm eggs 0-24 hours old is also dipped in the test solution and placed on a leaf of the cotton plant, all being placed in the hood to dry. The leaf with the treated budworm eggs is removed from the plant and placed in a 226 g Dixie cup with a wet 5 cm piece of dental wick and covered with a lid. The other leaf is placed in a similar cup with a wick and a piece of cheesecloth infested with 50-100 newly hatched larvae is added before covering the cup with a lid. After three days at 80° F., 50% relative humidity, observations of egg hatch are made, as well as kill of newly hatched larvae, any inhibition of feeding, or interference of any sort with normal development.

[3] = Heliothis virescens; read-out: LC50 Tobacco Budworm
[4] = Spodoptera eridania; read-out: LC50 Southern Armyworm
[5] = Heliothis virescens, read-out: LC50 Tobacco Budworm

| SMILES | LC50 (Tobacco Budworm; [3]) | Mortality Rating Southern Armyworm (Southern Armyworm; 10 ppm, third-instar larvae) | Mortality Rating Southern Armyworm (Southern Armyworm; 100 ppm, third-instar larvae) | Mortality Rating Southern Armyworm (Southern Armyworm; 1000 ppm, third-instar larvae) | LC50 (Southern Armyworm; [4]) | LC50 Southern Armyworm (Southern Armyworm; southern armyworm, in vivo) | Mortality Rating Tobacco Budworm 3rd Instar ([1]; 10 ppm) | Mortality Rating Tobacco Budworm 3rd Instar ([1]; 100 ppm) | Mortality Rating Tobacco Budworm 3rd Instar ([1]; 1000 ppm) | LC50 (Tobacco Budworm; [5]) | Mortality Rating Tobacco Budworm 1st Instar ([2]; 300 ppm) | LC50 (Southern Armyworm; Spodoptera eridania, read-out: LC50 Southern Armyworm) | Mortality Rating Tobacco Budworm 1st Instar ([2]; 100 ppm) | Mortality Rating Tobacco Budworm 1st Instar ([2]; 10 ppm) |
| --- | --- | --- | --- | --- | --- | --- | --- | --- | --- | --- | --- | --- | --- | --- |
| N=C(NN=Cc1ccc(C(F)(F)F)cc1)N(N=Cc1ccc(C(F)(F)F)cc1)C(=O)N1CCCC1 [CF3 / CF3 / (CH2)4] | 1000 µg/mL (≈ 2010 µM) | 9 (100%) | 9 (100%) | 9 (100%) | 18 µg/mL (≈ 36.1 µM) | 14 ppm | 0 (No effect) | 4 (46-55%) | 9 (100%) |  |  |  |  |  |
| N=C(NN=Cc1ccc(C(F)(F)F)cc1)N(N=Cc1ccc(C(F)(F)F)cc1)C(=O)NCCCl [CF3 / CF3 / ClCH2 CH2 / H, allophanimidic acid, 4-(2-chloroethyl)-2-{[p-(trifluoromethyl)benzylidene]amino}-allophanimidicacid [p-(trifluoromethyl)benzylidene]hydrazide] |  |  | 9 (100%) | 9 (100%) |  |  |  | 4 (46-55%) | 9 (100%) | 654 µg/mL (≈ 1290 µM) | 0 (No effect) |  |  |  |
| CN(C)C(=O)N(N=Cc1ccc(OC(F)(F)C(Cl)Cl)cc1)C(=N)NN=Cc1ccc(OC(F)(F)C(Cl)Cl)cc1 [HCCl2 CF2 O / HCCl2 CF2 O / CH3 / CH3] | 140 µg/mL (≈ 221 µM) |  | 9 (100%) | 9 (100%) | 26 µg/mL (≈ 41 µM) |  |  | 2 (26-35%) | 0 (No effect) |  |  |  |  |  |
| CN(C)C(=O)N(N=Cc1ccc(OC(F)(F)C(F)F)cc1)C(=N)NN=Cc1ccc(OC(F)(F)C(F)F)cc1 [HCF2 CF2 O / HCF2 CF2 O / CH3 / CH3, 4,4-dimethyl-2-{[p-(1,1,2,2-tetrafluoroethoxy)benzylidene]amino}-allophanimidic acid [p-(1,1,2,2-tetrafluoroethoxy)benzylidene]hydrazide] |  | 0 (No effect) | 9 (100%) | 9 (100%) |  |  |  | 2 (26-35%) | 8 (86-99%) | 491 µg/mL (≈ 864 µM) | 9 (100%) | 7 µg/mL (≈ 12.3 µM) | 5 (56-65%) |  |
| CN(C)C(=O)N(N=Cc1ccc(OC(F)(F)C(F)Cl)cc1)C(=N)NN=Cc1ccc(OC(F)(F)C(F)Cl)cc1 (stereo not drawn) [drawing 40 / drawing 41 / CH3 / CH3] | 201 µg/mL (≈ 334 µM) | 9 (100%) | 9 (100%) | 9 (100%) |  |  | 0 (No effect) | 4 (46-55%) | 9 (100%) |  |  |  |  |  |
| CN(C)C(=O)N(N=Cc1ccc(OC(F)(F)F)cc1)C(=N)NN=Cc1ccc(OC(F)(F)F)cc1 [CF3 O / CF3 O / CH3 / CH3] | 77 µg/mL (≈ 153 µM) | 9 (100%) | 9 (100%) | 9 (100%) |  |  |  | 3 (36-45%) | 9 (100%) |  |  |  |  |  |
| CN(C)C(=O)N(N=Cc1ccc(C(F)(F)F)cc1)C(=N)NN=Cc1ccc(C(F)(F)F)cc1 [CF3 / CF3 / CH3 / CH3] | 96 µg/mL (≈ 203 µM) | 8 (86-99%) | 9 (100%) | 9 (100%) | 15 µg/mL (≈ 31.8 µM) |  | 0 (No effect) | 9 (100%) | 9 (100%) |  | 8 (86-99%) |  | 6 (66-75%) | 0 (No effect) |

Reference: patent publication US4575560A, “Insecticidal diaminoguanidine hydrazone compounds” (American Cyanamid Company, priority 1985, dated 1986)
